Source: publication PMC10695737, “Crystal Modifications of a Cyclic Guanosine Phosphorothioate Analogue, a Drug Candidate for Retinal Neurodegenerations” (ChemistryOpen, 2023)
Converted amounts (≈) assume the structure as drawn. “And” between values parts separate entries of the source, which are not always exact repeats. Equal values may be shown once.

Experiments:
Format in all cases: physicochemical
[1] = Phase solubility in deionized water (HPLC); conditions: for pH of mixture: aqueous solubility measurements; for solubility at 24 h: deionized water, thermodynamic from solid
Procedure: (§1) The pH‐solubility profile of cGMPSA salts and free acid was determined by phase solubility techniques.[18] Briefly, saturated mixtures of the compound were prepared by adding excess amount to 4 mL vials containing 2 mL deionized water, an acidic buffer (0.1 M HCl(aq), pH 1), or a basic buffer (0.1 M NaOH(aq), pH 13). They were allowed to equilibrate for 24 h using mild agitation before recording the pH. The clear solution was separated from the solids by filtration with a Cytiva Whatman™ Mini‐Uniprep™ polypropylene 0.45 μm filter device and diluted to an appropriate analytical concentration where needed. The sample was then analyzed by HPLC, and the solubility determined by integrating the area of the peak of interest against a standard curve. The solids were also analyzed by XRPD to record the crystal modification obtained.

[2] = pH-dependent solubility in acidic buffer 0.1 M HCl(aq); conditions: 0.1 M HCl(aq) acidic buffer, simulated gastric fluid, thermodynamic from solid, pH 1, read-out: Solubility in 0.1M HCl(aq), µg / mL (SD)
Procedure: as §1

[3] = pH-dependent solubility in basic buffer NaOH(aq); conditions: 0.1 M NaOH(aq) basic buffer, aqueous buffer, thermodynamic from solid, pH 13, read-out: Solubility in 0.1M NaOH(aq), mg / mL (SD)
Procedure: as §1

[4] = Dynamic vapor sorption (DVS), water sorption as Δm; conditions: for Water sorption Δm: 25 °C
Procedure: The samples were analyzed at 25 °C with a Surface Measurements Systems DVS Advantage. A sample was weighted into a weighing pan and its mass was monitored while it was exposed to different relative humidities (%RH=%P/P0). Before the analysis, the weighing pan was subject to an antistatic program.
The analysis program consisted of two cycles. In each cycle, the relative humidity was increased stepwise up to 95 % RH (starting from 0 % RH, 9 steps with 10 % and one step with 5 %) and then decreased stepwise to 0 % RH again. In both sorption/desorption cycles, at each step, the sample was kept at the set relative humidity until dm/dt <0.002 %, over 15 min.

[5] = Polymorph screen, approximate solubility in solvents (UHPLC); conditions: thermodynamic from solid
Procedure: A polymorph screen was done for cGMPSA‐TEA with a similar approach. An excess of the compound was slurried in a range of solvents, typically 20–40 mg in 1 mL. For screens where enough solid material was obtained, it was analyzed by XRPD to record the crystal modification.

[6] = Thermal analysis (DSC/TGA), decomposition; conditions: DSC 25 to 300 °C, 10 °C/min
Procedure: Differential scanning calorimetry (DSC) analyses were carried out on a Mettler DSC822e, equipped with a Thermo Haake EK45/MT cooler. The samples were weighed into a 40 μL Al‐cup, which were then closed with a pierced lid. The sample was scanned from 25 to 300 °C, with a scan rate of 10 °C/min.
Thermogravimetric analysis (TGA) was performed on a Mettler TGA/SDTA 851e, equipped with a Haake C50P cooler. Alternatively, thermogravimetric and DSC analyses were carried out simultaneously in a Mettler Toledo TGA/DSC 3+. The samples were weighed into a 100 μL Al‐cup and this was flushed with dry nitrogen gas during the analysis. The sample was scanned from 25 to 300 °C, with a scan rate of 10 °C/min.

[7] = 0 % RH, after final desorption cycle 2 (D2)
[8] = 30 % RH, desorption cycle 2 (D2)
[9] = 60 % RH, desorption cycle 2 (D2)
[10] = 95 % RH, desorption cycle 2 (D2)

O=c1c2nc(Br)n(C3OC4COP(O)(=S)OC4C3O)c2nc2[nH]c(-c3ccccc3)cn12 (centres unmarked) [cGMPSA‐TEA]
pH of mixture ([1]; supplement): 4,38
pH at saturation solubility ([1]; deionized H2O, quadruplicates): 4.4 (±0.4)
solubility at 24 h ([1]; pH 4.38, water, supplement, read-out: Aqueous solubility measurements): 8900 µg/mL (≈ 16500 µM)
solubility at 24 h ([1]; pH 4.4, water, deionized H2O, quadruplicates, read-out: Solubility): 8800 µg/mL (≈ 16300 µM)
solubility at 24 h [2]: 5 µg/mL (≈ 9.25 µM)
solubility at 24 h [3]: 51600 µg/mL (≈ 95500 µM)
Water sorption Δm [4, 7]: −1.0%
Water sorption Δm [4, 8]: 3.5%
Water sorption Δm ([4]; 30 % RH, sorption cycle 1 (S1)): 3.4%
Water sorption Δm [4, 9]: 4.8%
Water sorption Δm ([4]; 60 % RH, sorption cycle 1 (S1)): 4.0%
Water sorption Δm [4, 10]: 5.2%
Water sorption Δm ([4]; 95 % RH, sorption cycle 1 (S1)): 5.0%
change in mass (Δm) ([4]; at 95 % relative humidity (maximum RH), stated in text): about 5%
solubility ([5]; aqueous with cosolvent or surfactant or cyclodextrin, solvent EtOH+H2O 1 : 1 v/v, solution): > 40000 µg/mL
solubility ([5]; aqueous with cosolvent or surfactant or cyclodextrin, solvent MeCN+H2O 1 : 1 v/v, solution): > 40000 µg/mL
solubility ([5]; aqueous with cosolvent or surfactant or cyclodextrin, solvent MeOH+H2O 1 : 1 v/v, solution): > 40000 µg/mL
solubility ([5]; aqueous with cosolvent or surfactant or cyclodextrin, solvent THF+H2O 1 : 1 v/v, solution): > 40000 µg/mL
solubility ([5]; organic solvent or mixture, solvent 2‐PrOH): 105 µg/mL (≈ 194 µM)
solubility ([5]; organic solvent or mixture, solvent Acetone): 285 µg/mL (≈ 527 µM)
solubility ([5]; organic solvent or mixture, solvent DMF, solution): > 40000 µg/mL
solubility ([5]; organic solvent or mixture, solvent DMSO, solution): > 40000 µg/mL
solubility ([5]; organic solvent or mixture, solvent Dichloromethane): 30 µg/mL (≈ 55.5 µM)
solubility ([5]; organic solvent or mixture, solvent Diethyl ether): 3 µg/mL (≈ 5.55 µM)
solubility ([5]; organic solvent or mixture, solvent Dimethoxyethane): 15 µg/mL (≈ 27.8 µM)
solubility ([5]; organic solvent or mixture, solvent Dioxane): 30 µg/mL (≈ 55.5 µM)
solubility ([5]; organic solvent or mixture, solvent EtOAc): 5 µg/mL (≈ 9.25 µM)
solubility ([5]; organic solvent or mixture, solvent EtOH): 1610 µg/mL (≈ 2980 µM)
solubility ([5]; organic solvent or mixture, solvent EtOH+THF 1 : 1 v/v, solution): > 40000 µg/mL
solubility ([5]; organic solvent or mixture, solvent MeCN): 114 µg/mL (≈ 211 µM)
solubility ([5]; organic solvent or mixture, solvent MeOH): 40 µg/mL (≈ 74 µM)
solubility ([5]; organic solvent or mixture, solvent MeTHF): 10 µg/mL (≈ 18.5 µM)
solubility ([5]; organic solvent or mixture, solvent THF): 28 µg/mL (≈ 51.8 µM)
solubility ([5]; organic solvent or mixture, solvent i‐PrOAc): 10 µg/mL (≈ 18.5 µM)
solubility ([5]; organic solvent or mixture, solvent n‐BuOH): 210 µg/mL (≈ 389 µM)

O=c1c2nc(Br)n([C@@H]3O[C@@H]4COP(=O)(S)O[C@H]4[C@H]3O)c2nc2[nH]c(-c3ccccc3)cn12 (some centres unmarked) [cGMPSA‐H]
pH of mixture ([1]; supplement): 2,47
pH at saturation solubility ([1]; deionized H2O, quadruplicates): 2.5 (±0.2)
solubility ([1]; deionized H2O, quadruplicates): 1.7 (±0.1) mg/mL
Water sorption Δm [4, 7]: 0.3%
Water sorption Δm [4, 8]: 5.7%
Water sorption Δm ([4]; 30 % RH, sorption cycle 1 (S1)): 5.3%
Water sorption Δm [4, 9]: 6.7%
Water sorption Δm ([4]; 60 % RH, sorption cycle 1 (S1)): 6.2%
Water sorption Δm [4, 10]: 9.3%
Water sorption Δm ([4]; 95 % RH, sorption cycle 1 (S1)): 9.1%
Onset of decomposition (DSC exotherm) [6]: 163.6 °C and ~ 163 °C

N.O=c1c2nc(Br)n([C@@H]3O[C@@H]4COP(=O)(S)O[C@H]4[C@H]3O)c2nc2[nH]c(-c3ccccc3)cn12 (some centres unmarked) [cGMPSA‐NH4]
pH of mixture ([1]; supplement): 3,16
pH at saturation solubility ([1]; deionized H2O, quadruplicates): 3.2 (±0.1)
solubility ([1]; deionized H2O, quadruplicates): 7.9 (±8.0) mg/mL

O=c1c2nc(Br)n([C@@H]3O[C@@H]4CO[P@@](O)(=S)O[C@H]4[C@H]3O)c2nc2[nH]c(-c3ccccc3)cn12.c1ccc(CCNCc2ccccc2)cc1 [cGMPSA‐Bnet, N-(Phenylmethyl)benzeneethanammonium RP-8-Bromo-β-phenyl-1,N2-ethenoguanosine-3′,5′-cyclicmonophosphorothioate]
pH of mixture ([1]; supplement): 7,17
pH at saturation solubility ([1]; deionized H2O, quadruplicates): 7.2 (±0.04)
solubility ([1]; deionized H2O, quadruplicates): 0.05 (±0.03) mg/mL
Water sorption Δm [4, 7]: 0.7%
Water sorption Δm [4, 8]: 4.4%
Water sorption Δm ([4]; 30 % RH, sorption cycle 1 (S1)): 3.4%
Water sorption Δm [4, 9]: 6.1%
Water sorption Δm ([4]; 60 % RH, sorption cycle 1 (S1)): 5.2%
Water sorption Δm [4, 10]: 7.7%
Water sorption Δm ([4]; 95 % RH, sorption cycle 1 (S1)): 8.0%
